“Also recorded” adds a separate entry of the source.
Legend:
Format in all cases: in vivo
eicosanoids [1] = experiment: Eicosanoid profiling by LC-MS/MS, left hippocampus of wild-type and 5×FAD mice; settings: 5 mk/kg twice daily for 4 weeks
Experimental: (§1) Eicosanoids were measured by methods of liquid chromatography with tandem mass spectrometry with the use of spiked in deuterated internal standards. Eicosanoids measured included: the 6-keto-PGF1 alpha (6-keto-PGF1a, a hydrolysis product of and proxy for prostacyclin), thromboxane B2 (TXB2, a metabolite/product of and proxy for thromboxane A2), PGD2, PGE2, 15-keto-PGE2 (produced by 15-PGDH degradation of PGE2), tetranor PGE1 (TN-E, a metabolic product produced by beta-oxidation of PGE2), PGJ2, PGF2 alpha (PGF2a), LTB4, 15-HETE, 12-HETE, 8-HETE, 5-HETE, 17-HDHA, 12,13-DiHOME, 14,15-DHET, 11,12-DHET.
FIG. 2 illustrates graphs showing comparison of eicosanoid values in brain of 6 month old male mice that are either wild-type or that are the 5×FAD strain of mice that model Alzheimer's disease. Beginning at 5 months of age both genotypes of mice were injected twice daily with either 5 mk/kg (+)-SW033291 or with matched vehicle control as described in Zhang et al. Science. 2015; 348(6240):aaa2340. PMCID: PMC4481126. Treatment continued twice daily for 4 weeks. Mice were sacrificed at 3 hours following their final injection. After sacrifice the left hippocampus was dissected, flash frozen, and powdered, and eicosanoids were extracted in aqueous buffer for analysis. Protein concentration of the extracts were assayed, and eicosanoid values were recorded as ng eicosanoid per mg protein.

eicosanoids [2] = experiment: Eicosanoid profiling by LC-MS/MS, brain hemispheres of mice after sham or traumatic brain injury (TBI); settings: for eicosanoid values in left hemisphere / eicosanoid values in right hemisphere (trends): 5 mk/kg twice daily for 21 days
Experimental: as §1
FIGS. 4-6 illustrate graphs showing comparisons of eicosanoid values in brain of wild-type male mice who at 8 weeks of age were subjected to sham or actual traumatic brain injury (TBI) delivered by blast wave to the left skull. 24 hours following sham or actual TBI treatment commenced by injection twice daily with either 5 mk/kg (+)-SW033291 or with matched vehicle control as described in Zhang et al. Science. 2015; 348(6240):aaa2340. PMCID: PMC4481126. Treatment continued for 21 days until mice reached 11 weeks of age. Three hours following the last injection, mice were sacrificed. After sacrifice the right or left hemisphere of the brain was dissected, flash frozen, and powdered, and eicosanoids were extracted in organic solvent for analysis. Values were normalized to the wet weight of the companion contralateral brain hemispheres and are recorded as ng eicosanoid per gm wet weight of tissue.

15-PGDH = target: T1, 15-PGDH (Mus musculus, UniProt Q8VCC1); experiment: 15-PGDH enzymatic activity in forebrain after TBI; settings: Hpgd+/+ mice, 3 weeks after TBI, 5 mg/kg started 24 hours after injury
T1 construct: brain tissue was dissected 3 weeks later for biochemical determination of 15-PGDH enzymatic activity; from tissue; host or cells: mouse brain (forebrain after TBI; whole brain of 5xFAD and WT littermates)
T1 sequence (Q8VCC1 1-269): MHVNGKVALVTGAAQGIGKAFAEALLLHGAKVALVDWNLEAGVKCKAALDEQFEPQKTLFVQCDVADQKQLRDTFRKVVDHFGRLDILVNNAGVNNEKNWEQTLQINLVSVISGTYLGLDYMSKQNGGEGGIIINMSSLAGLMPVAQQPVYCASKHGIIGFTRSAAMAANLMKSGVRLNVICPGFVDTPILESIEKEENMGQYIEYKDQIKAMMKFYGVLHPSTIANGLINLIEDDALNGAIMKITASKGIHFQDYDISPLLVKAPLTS
Experimental: (A) 8 week old 15-PGDH wild-type (Hpgd^+/+) and 15-PGDH knockout (Hpgd^−/−) mice were subjected to TBI, and brain tissue was dissected 2 weeks later for western blot. […] Individual human data points are shown on the graph. Data was analyzed with Student's t test. * p<0.05. All data is mean±SEM. (C) Hpgd^+/+ mice were subjected to TBI at 8 weeks of age and then brain tissue was dissected 3 weeks later for biochemical determination of 15-PGDH enzymatic activity. […] Individual mouse data points are shown on the graph. Data was analyzed with Student's t test. ** p<0.01, **** p<0.0001. All data is mean±SEM. (D) 5×FAD mice and wild type littermates (WT) were administered either 5 mg/kg/day (+)-SW033291 twice daily (or vehicle) from 2 to 6 months of age, and then brains were dissected for biochemical assessment of 15-PGDH activity. […] Individual mouse data points are shown on the graph. Data was analyzed using two-way repeated measures ANOVA; * p<0.05, ** p<0.01, *** p<0.001. All data is mean±SEM.

[3] = tested on: C57/B6 mice exposed to TBI; experiment: Silver staining for axon degeneration after TBI; settings: 3 weeks after TBI, 5 mg/kg twice daily started 24 hours after injury
Experimental: 8 week old C57/B6 mice were exposed to sham-injury or TBI. Twice daily treatment with 5 mg/kg (+)-SW033291, 5 mg/kg (−)-SW033291, or vehicle was started 24 hours after injury and continued throughout the duration of the experiment. Animals were sacrificed by transcardial perfusion 3 weeks after TBI or sham-injury, and fixed brains were processed for silver staining. […] Individual mouse data points are shown on the graph. Data was analyzed using two-way repeated measures ANOVA; * p<0.05, ** p<0.01. All data is mean±SEM.

5×FAD mice [4] = experiment: Amyloid plaque accumulation (Congo Red staining); settings: 5 mg/kg/day twice daily from 2 to 6 months
Experimental: Two month old 5×FAD and wild type (WT) littermates were treated with 5 mg/kg/day twice daily (+)-SW033291 (or vehicle) every day from 2 to 6 months. At 5 months of age, mice were injected with a single dose of 150 mg/kg bromodeoxyuridine (BrdU) to label replicating cells. At the age of 6 months (28 days after BrdU) mice were transcardially perfused and brains were dissected for examination of fixed tissue. […] Individual mouse data points are shown on the graph. Data was analyzed using two-way repeated measures ANOVA; * p<0.05, ** p<0.01, ***p<0.001, ****p<0.0001. All data is mean±SEM.

5×FAD mice [5] = experiment: Blood-brain barrier integrity by transmission electron microscopy
Experimental: BBB integrity was analyzed using transmission electron microscopy (TEM) in 6 month old 5×FAD mice. […] Mice were treated with 5 mg/kg/day (+)-SW033291 (or vehicle) every day from 2 to 6 months of age, and then sacrificed for TEM analysis. Individual mouse data points are shown on the graph. Data was analyzed using one-way ANOVA; * p<0.05, ** p<0.01, *** p<0.001. All data is mean±SEM.

[6] = 5×FAD mice, versus vehicle control treated 5×FAD mice
[7] = following TBI, compared to vehicle treated mice
[8] = sham mice, compared to vehicle treated sham mice
[9] = 6 month old 5×FAD mice, 5 mg/kg/day from 2 to 6 months of age, TEM

CCCC[S+]([O-])c1sc2nc(-c3cccs3)cc(-c3ccccc3)c2c1N (single isomer, unassigned; (+)) [(+)-SW033291]
TXB2 in left hippocampus (eicosanoids [1]; [6]): significant increase in TXB2 | eicosanoid values in left hippocampus (trends) (eicosanoids [1]; [6]): a trend to increased 6-keto-PGF1a, PGD2, PGE2, PGJ2, PGF2a | eicosanoid values in left hippocampus (trends) (eicosanoids [1]; wild-type mice, versus vehicle treated mice): trends for increases in 6-keto-PGF1a, PGD2, PGE2, PGF2a, and 9,10-DiHOME | left hemisphere values of PGJ2, TN-E, 15-HETE, and 9,10-DiHOME (eicosanoids [2]; TBI treated mice versus sham injury vehicle treated mice): restoration | eicosanoid values in left hemisphere (eicosanoids [2]; [7]): significantly increased PGJ2, TN-E, 15-HETE, 8-HETE, 5-HETE, 9,10-DiHOME, and LTB4 | eicosanoid values in right hemisphere (trends) (eicosanoids [2]; [7]): trends toward decreased PGJ2, and TxB2 | eicosanoid values in left hemisphere (eicosanoids [2]; [8]): significantly decreased PGE2, PGF2a, 6-keto-PGF1a, PGD2, PGJ2, TN-E, TxB2, 15-HETE, 12-HETE, 9,10-DiHOME | eicosanoid values in right hemisphere (trends) (eicosanoids [2]; [8]): a trend toward increased PGE2, 15-keto-PGE2, PGF2a, TN-E, 15-HETE, 12-HETE, 8-HETE, 5-HETE, and LTB4 | 15-PGDH enzymatic activity in the forebrain (15-PGDH): restored to normal; also recorded: returned to normal | silver staining (axon degeneration) ([3]; 5 mg/kg): reduced silver staining equivalent to sham-injury-vehicle | silver staining (axon degeneration) ([3]; listed as (+)-SW033921, 5 mg/kg): protects wild type mice from axon degeneration after TBI | amyloid plaque accumulation (Congo Red staining) (5×FAD mice [4]): does not alter amyloid plaque accumulation; also recorded: does not affect accumulation of amyloid plaque | blood-brain barrier (BBB) protection (5×FAD mice [5]; 5×FAD mice): protects the blood-brain barrier (BBB) in 5×FAD mice | disruption of astrocyte end feet that envelope the BBB (5×FAD mice [5]; [9]): prevented this disruption | enlargement of the perivascular space (5×FAD mice [5]; [9]): prevented this disruption

Reference: patent US20230310390A1, “INHIBITORS OF SHORT-CHAIN DEHYDROGENASE ACTIVITY FOR TREATING NEURODEGENERATION” (CASE WESTERN RESERVE UNIVERSITY, priority 2020, published 2023)
